Results: patent US20260306500A1, “METHOD OF INHIBITING ADENOSINE TRIPHOSPHATE SECRETION, METHOD OF INHIBITING HEPATIC STELLATE CELL ACTIVATION, METHOD OF DEACTIVATING HEPATIC STELLATE CELL, METHOD OF TREATING HEPATIC FIBROSIS, METHOD OF TREATING NON-ALCOHOLIC STEATOHEPATITIS, AND METHOD OF TREATING PSORIASIS” (Kurume University, priority 2023, published 2026)
Structures can show the parent of a compound that is named as a salt.

Legend:
[1] = test system: catecholamine transport of chromaffin granule membranes; assay: Catecholamine (dopamine) transport in chromaffin granule membranes; type: biochemical, cattle; conditions: role: inhibitor; MANT-ATP, N=3 (FIG. 11)
Method: (§1) Chromaffin granule membranes were prepared from adrenal glands collected from slaughtered cattle according to Reference A (Nathan Nelson et al., 1988, Chromaffin Granule Proton Pump, Methods in Enzymology, 157, 619-633). Chromaffin granule membranes prepared by sucrose density gradient centrifugation were suspended in 2 ml of SME buffer (20 mM MOPS-tris (pH 7.0), 0.3 M sucrose, 5 mM EDTA, 10 μg/ml leupeptin, and 10 μg/ml pepstatin)+25% glycerol, and the resulting suspension was aliquoted and stored at −80° C. Under these conditions, the ATP transport activity, the V-ATPase activity, and the catecholamine transport activity remain fully active for at least one year.
A catecholamine transport inhibition experiment was carried out in the same manner as the ATP transport experiment except that the experiment used a measurement liquid containing 20 mM MOPS-tris (pH 7.0), 0.1 M sucrose, 0.1 M potassium chloride, 5 mM magnesium acetate, and about 5 μg of chromaffin granule membranes. To 0.5 ml of the measurement liquid, 2 mM ATP was added, and the resulting mixture was incubated at 30° C. for about 5 minutes, followed by addition of 3[H]-dopamine thereto to a final concentration of 10 μM. After further incubation at 30° C. for 15 minutes, 0.2 ml of the reaction liquid was subjected to suction filtration through a Millipore MCE membrane filter with a pore size of 0.45 μm, and the radioactivity on the filter was measured (N=3). The substrate, 3[H]-dopamine, was prepared by mixing 3,4-[RING-2,5,6-^3H]dihydroxyphenylethylamine (dopamine) (30 Ci/mmol) (manufactured by New England Nuclear) with dopamine hydrochloride (manufactured by LKT Laboratories) such that a final concentration of […] was achieved during the use.
(§2) Chromaffin granule membrane vesicles were prepared in the same manner as in Example 5, and uptake of radiolabeled ATP into the vesicles was measured. Transport activity of catecholamine (dopamine) and ATP-dependent proton transport by V-ATPase were also measured in the same manner as in Example 5.

V-ATPase [2] = target: T1, V-ATPase (Bos taurus, UniProt P31404+P31408); assay: ATP-dependent proton transport by V-ATPase (acridine orange fluorescence quenching); type: biochemical, cattle
T1 construct: Chromaffin granule membranes were prepared from adrenal glands collected from slaughtered cattle; from tissue; host or cells: cattle adrenal glands, chromaffin granule membranes (sucrose density gradient)
T1 sequence (P31404 whole entry, looked up): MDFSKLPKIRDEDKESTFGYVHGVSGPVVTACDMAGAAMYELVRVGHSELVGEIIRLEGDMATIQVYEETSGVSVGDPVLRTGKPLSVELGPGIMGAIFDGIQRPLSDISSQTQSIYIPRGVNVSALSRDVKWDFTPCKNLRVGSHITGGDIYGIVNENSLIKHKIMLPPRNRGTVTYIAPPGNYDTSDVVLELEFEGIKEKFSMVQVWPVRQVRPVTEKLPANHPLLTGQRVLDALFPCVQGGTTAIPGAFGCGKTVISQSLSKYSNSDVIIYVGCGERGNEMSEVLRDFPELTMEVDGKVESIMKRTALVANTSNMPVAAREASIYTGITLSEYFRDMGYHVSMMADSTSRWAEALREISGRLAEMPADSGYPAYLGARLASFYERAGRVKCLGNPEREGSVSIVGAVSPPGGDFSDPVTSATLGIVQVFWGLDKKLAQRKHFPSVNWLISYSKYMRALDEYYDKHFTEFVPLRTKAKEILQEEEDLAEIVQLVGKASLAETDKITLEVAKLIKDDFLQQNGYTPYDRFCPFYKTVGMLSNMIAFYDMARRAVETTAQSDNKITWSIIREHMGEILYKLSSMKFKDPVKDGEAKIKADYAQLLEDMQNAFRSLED
T1 sequence (P31408 whole entry, looked up): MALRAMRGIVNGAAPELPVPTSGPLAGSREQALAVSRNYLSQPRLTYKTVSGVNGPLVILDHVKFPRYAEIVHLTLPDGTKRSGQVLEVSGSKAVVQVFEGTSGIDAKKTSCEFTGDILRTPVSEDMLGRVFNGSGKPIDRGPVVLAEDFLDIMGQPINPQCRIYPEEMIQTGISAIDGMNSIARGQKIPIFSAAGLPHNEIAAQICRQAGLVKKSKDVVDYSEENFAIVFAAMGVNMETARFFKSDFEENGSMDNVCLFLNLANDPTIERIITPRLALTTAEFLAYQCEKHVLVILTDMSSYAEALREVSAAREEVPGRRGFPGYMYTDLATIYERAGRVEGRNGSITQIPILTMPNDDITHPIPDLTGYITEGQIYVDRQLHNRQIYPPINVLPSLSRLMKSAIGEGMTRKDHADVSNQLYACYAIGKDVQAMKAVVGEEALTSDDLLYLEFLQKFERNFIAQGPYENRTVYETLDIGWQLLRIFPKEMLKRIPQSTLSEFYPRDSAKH
Method: as §1
ATP-dependent proton transport by V-ATPase was measured according to Reference B. Proton transport activity was measured using a spectrofluorometer at excitation wavelength of 492 nm and a fluorescence wavelength 540 nm, wherein fluorescence quenching of acridine orange was used as an index (N=2). The transmembrane potential generated was measured using a spectrofluorometer at an excitation wavelength of 580 nm and a fluorescence wavelength of 630 nm, wherein fluorescence quenching of oxonol-V was used as an index (N=2). The acridine measurement liquid (2 ml) contained 20 mM MOPS-tris (pH 7.0), 0.2 M sucrose, 0.1 M potassium chloride, 5 mM magnesium acetate, 0.2 μg valinomycin, 2 μM acridine orange, and about 20 μg of chromaffin granules. The oxonol-V measurement liquid (2 ml) contained 20 mM MOPS-tris (pH 7.0), 0.3 M sucrose, 5 mM magnesium acetate, 5 μM oxonol-V, and about 20 μg of chromaffin granules.
as §2

[3] = test system: ATP-loaded vesicles of keratinocytes; assay: Accumulation of MANT-ATP in granules of keratinocytes (confocal microscopy); type: cell-based, human; conditions: 0.3 mM MANT-ATP, control without imeglimin (FIG. 13)
Method: Keratinocytes were cultured in the same manner as in Example 8. Keratinocytes were cultured at 4×10^4 cells/ml in a glass-bottom dish (35 mm, manufactured by Matsunami Glass Ind., Ltd.) at 37° C. in 5% CO2 for 2 days. The culture medium was then replaced with a medium supplemented with MANT-ATP (manufactured by Invitrogen) at a final concentration of 0.3 mM, and further incubation was performed for 4.5 hours. Subsequently, imeglimin was added thereto to a final concentration of 10 μM, and further incubation was performed at 37° C. in 5% CO2 for 19 hours. Thereafter, the cells were washed twice with HBSS (manufactured by Gibco) and observed using an inverted confocal laser microscope (FV-1000 OSR, manufactured by Olympus Corporation).

[4] = test system: chromaffin granule membrane; assay: ATP transport (uptake of radiolabeled ATP) in chromaffin granule membrane vesicles; type: biochemical, cattle; conditions: role: inhibitor, MANT-ATP
Method: as §1
An ATP transport inhibition experiment for the chromaffin granule membrane was carried out according to Reference B (Yoshinori Moriyama et al., 2022, Is the vesicular nucleotide transporter a molecular target of eicosapentaenoic acid?, Frontiers in Pharmacology, 103389). About 20 μg of chromaffin granule membranes were added to 0.5 ml of measurement buffer (20 mM MOPS-tris (pH 7.0), 0.3 M sucrose, 5 mM potassium chloride, 5 mM magnesium acetate, 5 mM creatine phosphate, 10 units of creatine kinase, and 1 mM 3[H]-ATP [15 KBq/assay]), followed by incubation at 30° C. for 1 hour. Through a Millipore MCE membrane filter with a pore size […], 0.2 ml of the reaction liquid was filtered by suction. Thereafter, the filter was washed with 10 ml of 20 mM MOPS-tris (pH 7.0), 0.3 M sucrose, 5 mM potassium chloride, and 5 mM magnesium acetate, and dissolved in 10 ml of Clear-sol II (manufactured by Nacalai Tesque, Inc.). The radioactivity was then measured using a liquid scintillation counter (N=3).
The reaction was initiated by adding 50 mM ^3[H]-ATP to a final concentration of 1 mM. The 50 mM ^3[H]-ATP was prepared by mixing an ATP-tris solution (manufactured by Sigma-Aldrich) with [2,8-^3H]adenosine triphosphate tetrasodium salt (26.0 Ci/mmol) (manufactured by New England Nuclear). PEP was used as a test reagent, and pyruvic acid was used as a negative control. Five minutes before the addition of ATP, PEP or pyruvic acid, as a solution in 20 mM MOPS-tris (pH 7.0), 0.3 M sucrose, 5 mM potassium chloride, and 5 mM magnesium acetate, was added to the measurement liquid to a final PEP concentration of 0.02, 0.05, 0.1, 0.2, 0.4, or 1 mM, or to a final pyruvic acid concentration of 0.5 or 1 mM.
as §2

[5] = test system: human epidermal keratinocytes; assay: ATP secretion from human epidermal keratinocytes promoted by ionomycin; type: cell-based
Method: Human epidermal keratinocytes (Cryopreserved HEK, Lot 1758, Cell Applications Inc.) were cultured using an Epivita Keratinocyte Growth Medium Kit according to the manufacturer's instructions. The procedure was as follows. A supplement medium was added to a hydrocortisone-containing basal medium included in the medium preparation kit to prepare a complete medium. The medium in the dish was removed by aspiration. The cells were washed with 5 ml of BSS (Gbco), and then the BSS was removed by aspiration. After addition of 5 to 6 ml of trypsin/EDTA solution (Gbco), the dish was incubated at 37° C. for 2 minutes. After addition of 5 ml of trypsin neutralization solution, the resulting cell suspension was transferred into two 15-ml Falcon tubes, and centrifuged at 200×g for 5 minutes. The supernatant was removed by aspiration, and the pelleted cell cluster was suspended in 2 ml of the medium at 4.5×10^5 cells/ml. An aliquot of the resulting cell suspension was cryopreserved, while another aliquot was cultured and subjected to measurement.
ATP secretion by human epidermal keratinocytes (hereinafter referred to as “keratinocytes”) was measured. Regarding control solutions, Krebs-Ringer HEPES supplemented with 0.2% BSA and 25 mM glucose (hereinafter also referred to as “Krebs/Iono(−)”) was used as a negative control, and a solution prepared by adding 5 μM ionomycin to this solution (hereinafter also referred to as “Krebs/Iono(+)”) was used as a positive control for ATP secretion. Ionomycin is a Ca^2+ ionophore. Addition of ionomycin to cells is known to promote influx of extracellular Ca^2+ into the cells to increase the intracellular Ca^2+ concentration, resulting in enhancement of ATP secretion. Test solutions were prepared by adding clodronate to Krebs/Iono(−) or Krebs/Iono(+) to a final concentration of 0.1 μM (hereinafter also referred to as “Clo/Iono(−)” or “Clo/Iono(+)”, respectively) (N=3).
Keratinocytes were cultured at 2.5×10^4 cells/well in a 24-well plate at 37° C. in 5% CO2 for 4 days. The medium was removed by aspiration, replaced with Krebs/Iono(−) or Clo/Iono(−), and incubated at 37° C. for 6 hours. These solutions were then removed by aspiration, and the content of each well incubated with Krebs/Iono(−) was replaced with 300 μl of a control solution (Krebs/Iono(−) or Krebs/Iono(+)), while the content of each well incubated with Clo/Iono(−) was replaced with 300 μl of a test solution (Clo/Iono(−) or Clo/Iono(+)). After further incubation at 37° C. for 20 minutes, 200 μl of the supernatant was collected. The collected supernatant was immediately treated on a heat block at 95° C. for 10 minutes, to inactivate ectonucleotidase. ATP in the supernatant was quantified using a Dojindo ATP assay kit−Luminescence (manufactured by Dojindo Laboratories).
Keratinocytes were cultured in the same manner as in Example 1, and ATP secretion from the keratinocytes was measured. Krebs/Iono(−), or a solution prepared by adding 10 μM imeglimin, 0.1 μM eicosapentaenoic acid (EPA), 1 μM EPA, or 10 μM clodronate to Krebs/Iono(−) was used (N=4).
After culturing keratinocytes, the medium was removed by aspiration, and replaced with Krebs/Iono(−), or Krebs/Iono(−) supplemented with 10 μM imeglimin, 0.1 μM EPA, 1 μM EPA, or 10 μM clodronate, followed by incubation for 6 hours. Subsequently, the solution was replaced with either a control solution (Krebs/Iono(−) or Krebs/Iono(+)) or a test solution (Krebs/Iono(+) supplemented with 10 μM imeglimin, 0.1 μM EPA, 1 μM EPA, or 10 μM clodronate), followed by incubation at 37° C. for 20 minutes and then collection of 200 μl of the supernatant. The collected supernatant was immediately treated on a heat block at 95° C. for 10 minutes to inactivate ectonucleotidase. ATP in the supernatant was quantified using a Dojindo ATP assay kit—Luminescence (manufactured by Dojindo Laboratories). […]

V-ATPase [6] = assay: Inhibitory effect on V-ATPase (data not shown)
VNUT = assay: Inhibitory effect on VNUT (data not shown)
[7] = test system: human epidermal keratinocytes; assay: ATP secretion from keratinocytes upon LPS stimulation; type: cell-based; conditions: 10 μM, 18 hours, 10 μg/ml LPS, N=8 (FIG. 8)
Method: Keratinocytes were cultured in the same manner as in Example 1. Keratinocytes were cultured at 2.5×10^4 cells/well in a 24-well plate at 37° C. in 5% CO2 for 4 days. The medium was replaced with a test solution (Hanks' balanced salt solution (HBSS) (manufactured by Gibco) supplemented with imeglimin, metformin, or clodronate), and then incubation was performed at 37° C. in 5% CO2 for 18 hours. Thereafter, LPS (10 μg/ml) was added thereto, and incubation was further carried out for 10 minutes, followed by collection of 200 μl of the supernatant. The supernatant was immediately treated on a heat block at 95° C. for 10 minutes, and ATP in the supernatant was quantified using an ATP Assay Kit−Luminescence (manufactured by Dojindo) (N=8).

effect on ATP-dependent proton transport by V-ATPase (V-ATPase [2]; role: inhibitor, MANT-ATP up to 100 μM, N=1 (FIG. 12))	quenching of acridine orange fluorescence (V-ATPase [2]; role: substrate, 0.1 mM MANT-ATP)	total acridine orange fluorescence quenching (V-ATPase [2]; role: substrate, 0.1 mM MANT-ATP followed by addition of ATP)	IC50 ([4]; radiolabeled ATP, N=3 (FIG. 10), read-out: ID50 of ATP transport)	Structure (SMILES)	effect on catecholamine transport system [1]	accumulation in the granules in keratinocytes [3]	mode of inhibition of ATP transport by VNUT [4]	ATP transport ([4]; radiolabeled ATP, N=3 (FIG. 10))	ATP secretion inhibitory effect at low concentration ([5]; 0.1 μM, 6 h preincubation, ionomycin)	ATP secretion inhibitory effect at higher concentrations ([5]; up to 10 μM metformin)	inhibitory effect on V-ATPase (V-ATPase [6])	inhibitory effect on VNUT (VNUT)	LPS-stimulated ATP secretion [7]
did not affect	34%	61.8%	~30 mM	CNc1ccccc1C(=O)O[C@H]1[C@@H](O)[C@H](n2cnc3c(N)ncnc32)O[C@@H]1COP(=O)(O)OP(=O)(O)OP(=O)(O)O [MANT-ATP, 2′/3′-O—(N-methyl-anthraniloyl)-adenosine-5′-triphosphate triethylammonium salt]	hardly affected	accumulation of MANT-ATP in the granules	competitively inhibits	strongly inhibited ATP transport	–	–	–	–	–
–	–	–	–	CN(C)C(=N)NC(=N)N [metformin]	–	–	–	–	exhibit an ATP secretion inhibitory effect	decreased inhibitory effect at higher concentrations	neither imeglimin nor metformin exhibited a strong inhibitory effect	neither imeglimin nor metformin exhibited a strong inhibitory effect	almost completely inhibited
